# How the values were obtained:
# S. aureus ATCC 29213 = assay: MIC by broth microdilution (CLSI), quality control strain S. aureus ATCC 29213; type: cell-based, Staphylococcus aureus; conditions: multiple values when multiple MIC assays were conducted; for MIC: Staphylococcus aureus, ATCC29213, S. aureus ATCC 29213
# Method: Minimum inhibitory concentrations were determined using the quality control strain S. aureus ATCC 29213 (Table 1) by the broth microdilution method according to guidelines of the Clinical and Laboratory Standards Institute (CLSI) (Cockerill, F. R.; et al., 2012, Methods for dilution antimicrobial susceptibility tests for bacteria that grow aerobically; approved standard-ninth edition. MA07-A9. Clinical and Laboratory Standard Institute, Wayne, Pa.). […] Published quality control ranges for gepotidacin and ciprofloxacin were used to validate each assay. MICs for selected compounds were also determined using a USA 300 strain of MRSA (Hidron, et al., Lancet Infect. Dis. 2009, 9:384-392). Vancomycin was used as an additional control.
# USA 300 strain of MRSA = assay: MIC by broth microdilution, USA 300 strain of MRSA; type: cell-based, Staphylococcus aureus; conditions: Staphylococcus aureus, multiple values when multiple MIC assays were conducted, read-out: MIC USA300
# Method: Minimum inhibitory concentrations were determined using the quality control strain S. aureus ATCC 29213 (Table 1) by the broth microdilution method according to guidelines of the Clinical and Laboratory Standards Institute (CLSI) (Cockerill, F. R.; et al., 2012, Methods for dilution antimicrobial susceptibility tests for bacteria that grow aerobically; approved standard-ninth edition. MA07-A9. Clinical and Laboratory Standard Institute, Wayne, Pa.). […] MICs for selected compounds were also determined using a USA 300 strain of MRSA (Hidron, et al., Lancet Infect. Dis. 2009, 9:384-392). Vancomycin was used as an additional control.
MIC (S. aureus ATCC 29213),MIC (USA 300 strain of MRSA),MIC 29213 (S. aureus ATCC 29213; S. aureus ATCC 29213),SMILES
4 µg/mL,–,–,"COc1ccc2ncc(=O)n(CC(O)[C@H]3OC[C@H](NCc4ccc5c(n4)NC(=O)CO5)CO3)c2c1 (relative stereo) [AB-0078, 6-(((2-(1-hydroxy-2-(7-methoxy-2-oxoquinoxalin-1(2H)-yl)ethyl)-trans-1,3-dioxan-5-yl)amino)methyl)-2H-pyrido[3,2-b][1,4]oxazin-3(4H)-one]"
8 µg/mL,–,–,"COc1ccc2ncc(=O)n(CC[C@H]3OC[C@H](NCc4cc5c(cn4)OCCO5)CO3)c2c1 [AB-0003, 1-(2-(5-(((2,3-dihydro-[1,4]dioxino[2,3-c]pyridin-7-yl)methyl)amino)-1,3-trans-dioxan-2-yl)ethyl)-7-methoxyquinoxalin-2(1H)-one]"
8 µg/mL,–,–,"COc1ccc2ncc(=O)n(CC[C@H]3OC[C@H](NCc4cc5c(cn4)OCCC5)CO3)c2c1 [AB-0006, 1-(2-(5-(((3,4-dihydro-2H-pyrano[2,3-c]pyridin-6-yl)methyl)amino)-trans-1,3-dioxan-2-yl)ethyl)-7-methoxyquinoxalin-2(1H)-one]"
4 µg/mL,–,–,"COc1ccc2ncc(=O)n(CC[C@H]3OC[C@H](NCc4ccc(Cl)c(Cl)c4)CO3)c2c1 [AB-0007, 1-(2-(5-((3,4-dichlorobenzyl)amino)-trans-1,3-dioxan-2-yl)ethyl)-7-methoxyquinoxalin-2(1H)-one]"
≤ 0.25 µg/mL,0.5 µg/mL,–,"COc1ccc2nccc(/C=C/[C@H]3OC[C@H](NCc4ccc(Cl)c(Cl)c4)CO3)c2c1 [AB-0009, N-(3,4-dichlorobenzyl)2-((E)-2-(6-methoxyquinolin-4-yl)vinyl)-trans-1,3-dioxan-5-amine]"
64 µg/mL,–,–,"COc1ccc2nccc(CC[C@H]3OC[C@H](NCc4cc(F)ccc4F)CO3)c2c1 [AB-0022, N-(2,5-difluorobenzyl)-2-(2-(6-methoxyquinolin-4-yl)ethyl)-trans-1,3-dioxan-5-amine]"
64 µg/mL,–,–,"COc1ccc2nccc(CC[C@H]3OC[C@H](NCc4ccc(F)c(F)c4)CO3)c2c1 [AB-0024, N-(3,4-difluorobenzyl)-2-(2-(6-methoxyquinolin-4-yl)ethyl)-trans-1,3-dioxan-5-amine]"
> 64 µg/mL,–,–,"COc1ccc2nccc(CC[C@H]3OC[C@H](NCc4c(F)cccc4F)CO3)c2c1 [AB-0025, N-(2,6-difluorobenzyl)-2-(2-(6-methoxyquinolin-4-yl)ethyl)-trans-1,3-dioxan-5-amine]"
64 µg/mL,–,–,"COc1ccc2nccc(CC[C@H]3OC[C@H](NCc4cccc(C#N)c4)CO3)c2c1 [AB-0026, 3-(((2-(2-(6-methoxyquinolin-4-yl)ethyl)-trans-1,3-dioxan-5-yl)amino)methyl)benzonitrile]"
> 64 µg/mL,–,–,"COc1ccc2nccc(CC[C@H]3OC[C@H](NCc4ccccc4OC)CO3)c2c1 [AB-0027, N-(2-methoxybenzyl)-2-(2-(6-methoxyquinolin-4-yl)ethyl)-trans-1,3-dioxan-5-amine]"
64 µg/mL,–,–,"COc1ccc2nccc(CC[C@H]3OC[C@H](NCc4cccc(F)c4F)CO3)c2c1 [AB-0028, N-(2,3-difluorobenzyl)-2-(2-(6-methoxyquinolin-4-yl)ethyl)-trans-1,3-dioxan-5-amine]"
16 µg/mL,–,–,"COc1ccc2nccc(CC[C@H]3OC[C@H](NCc4cc(F)cc(F)c4)CO3)c2c1 [AB-0029, N-(3,5-difluorobenzyl)-2-(2-(6-methoxyquinolin-4-yl)ethyl)-trans-1,3-dioxan-5-amine]"
> 64 µg/mL,–,–,"COc1ccc2nccc(CC[C@H]3OC[C@H](NCc4ccccc4C)CO3)c2c1 [AB-0032, 2-(2-(6-methoxyquinolin-4-yl)ethyl)-N-(2-methylbenzyl)-trans-1,3-dioxan-5-amine]"
> 64 µg/mL,–,–,"COc1ccc2nccc(CC[C@H]3OC[C@H](NCc4ccccc4F)CO3)c2c1 [AB-0033, N-(2-fluorobenzyl)-2-(2-(6-methoxyquinolin-4-yl)ethyl)-trans-1,3-dioxan-5-amine]"
16 µg/mL,–,–,"COc1cccc(CN[C@H]2CO[C@H](CCc3ccnc4ccc(OC)cc34)OC2)c1 [AB-0034, N-(3-methoxybenzyl)-2-(2-(6-methoxyquinolin-4-yl)ethyl)-trans-1,3-dioxan-5-amine]"
> 64 µg/mL,–,–,"COc1ccc2nccc(CC[C@H]3OC[C@H](NCc4ccsc4)CO3)c2c1 [AB-0035, 2-(2-(6-methoxyquinolin-4-yl)ethyl)-N-(thiophen-3-ylmethyl)-trans-1,3-dioxan-5-amine]"
> 64 µg/mL,–,–,"COc1ccc2nccc(CC[C@H]3OC[C@H](NCc4cccs4)CO3)c2c1 [AB-0036, 2-(2-(6-methoxyquinolin-4-yl)ethyl)-N-(thiophen-2-ylmethyl)-trans-1,3-dioxan-5-amine]"
32 µg/mL,–,–,"COc1ccc2nccc(CC[C@H]3OC[C@H](NCc4cccc(Cl)c4)CO3)c2c1 [AB-0037, N-(3-chlorobenzyl)-2-(2-(6-methoxyquinolin-4-yl)ethyl)-trans-1,3-dioxan-5-amine]"

MIC (S. aureus ATCC 29213),MIC (USA 300 strain of MRSA),MIC 29213 (S. aureus ATCC 29213; S. aureus ATCC 29213),SMILES
> 64 µg/mL,–,–,"COc1ccc2nccc(CC[C@H]3OC[C@H](NCc4ccccc4)CO3)c2c1 [AB-0038, N-benzyl-2-(2-(6-methoxyquinolin-4-yl)ethyl)-trans-1,3-dioxan-5-amine]"
64 µg/mL,–,–,"COc1ccc2nccc(CC[C@H]3OC[C@H](NCc4ccc(F)cc4F)CO3)c2c1 [AB-0039, N-(2,4-difluorobenzyl)-2-(2-(6-methoxyquinolin-4-yl)ethyl)-trans-1,3-dioxan-5-amine]"
> 64 µg/mL,–,–,"COc1ccc2nccc(CC[C@H]3OC[C@H](NCc4cccc(OC)n4)CO3)c2c1 [AB-0040, N-((6-methoxypyridin-2-yl)methyl)-2-(2-(6-methoxyquinolin-4-yl)ethyl)-trans-1,3-dioxan-5-amine]"
> 64 µg/mL,–,–,"COc1ccc2nccc(CC[C@H]3OC[C@H](NCc4ccc(F)cc4)CO3)c2c1 [AB-0041, N-(4-fluorobenzyl)-2-(2-(6-methoxyquinolin-4-yl)ethyl)-trans-1,3-dioxan-5-amine]"
16 µg/mL,–,–,"COc1ccc2nccc(CC[C@H]3OC[C@H](NCc4cccc(C)c4)CO3)c2c1 [AB-0042, 2-(2-(6-methoxyquinolin-4-yl)ethyl)-N-(3-methylbenzyl)-trans-1,3-dioxan-5-amine]"
> 64 µg/mL,–,–,"COc1ccc2nccc(CC[C@H]3OC[C@H](NCc4ccccc4Cl)CO3)c2c1 [AB-0043, N-(2-chlorobenzyl)-2-(2-(6-methoxyquinolin-4-yl)ethyl)-trans-1,3-dioxan-5-amine]"
64 µg/mL,–,–,"COc1ccc2nccc(CC[C@H]3OC[C@H](NCCc4ccccc4)CO3)c2c1 [AB-0045, 2-(2-(6-methoxyquinolin-4-yl)ethyl)-N-phenethyl-trans-1,3-dioxan-5-amine]"
8 µg/mL,–,–,COc1ccc2nccc(CC[C@H]3OC[C@H](NCc4ccccn4)CO3)c2c1 [AB-0048]
> 64 µg/mL,–,–,"COc1ccc2nccc(CC[C@H]3OC[C@H](NCc4cccnc4)CO3)c2c1 [AB-0049, 2-(2-(6-methoxyquinolin-4-yl)ethyl)-N-(pyridin-3-ylmethyl)-trans-1,3-dioxan-5-amine]"
32 µg/mL,–,–,"COc1ccc2nccc(CC[C@H]3OC[C@H](NCc4cccc(F)c4)CO3)c2c1 [AB-0050, N-(3-fluorobenzyl)-2-(2-(6-methoxyquinolin-4-yl)ethyl)-trans-1,3-dioxan-5-amine]"
32 µg/mL,–,–,"COc1ccc2nccc(CC[C@H]3OC[C@H](NCc4ccc(OC)nc4)CO3)c2c1 [AB-0056, N-((6-methoxypyridin-3-yl)methyl)-2-(2-(6-methoxyquinolin-4-yl)ethyl)-trans-1,3-dioxan-5-amine]"
8 µg/mL,–,–,"COc1ccc2nccc(CC[C@H]3OC[C@H](NCc4ccc(Cl)cn4)CO3)c2c1 [AB-0069, N-((5-chloropyridin-2-yl)methyl)-2-(2-(6-methoxyquinolin-4-yl)ethyl)-trans-1,3-dioxan-5-amine]"
4 µg/mL,–,–,"COc1ccc2nccc(CC[C@H]3OC[C@H](NCc4ccc(C)cn4)CO3)c2c1 [AB-0070, 2-(2-(6-methoxyquinolin-4-yl)ethyl)-N-((5-methylpyridin-2-yl)methyl)-trans-1,3-dioxan-5-amine]"
16 µg/mL,–,32 µg/mL,"COc1ccc2nccc(CC[C@H]3OC[C@H](NC(=O)c4ccccc4)CO3)c2c1 [AB-0075, N-(2-(2-(6-methoxyquinolin-4-yl)ethyl)-trans-1,3-dioxan-5-yl)benzamide]"
–,1 µg/mL,–,"COc1ccc2ncc(=O)n(CC(O)[C@H]3OC[C@H](NCc4ccc5c(c4)OCCO5)CO3)c2c1 (stereo partly drawn) [AB-0076, 1-(2-(5-(((2,3-dihydrobenzo[b][1,4]dioxin-6-yl)methyl)amino)-trans-1,3-dioxan-2-yl)-2-hydroxyethyl)-7-methoxyquinoxalin-2(1H)-one]"
4 µg/mL,–,–,"COc1ccc2nccc(CC[C@H]3OC[C@H](NCc4ccc(OC(F)F)cc4)CO3)c2c1 [AB-0084, N-(4-(difluoromethoxy)benzyl)-2-(2-(6-methoxyquinolin-4-yl)ethyl)-trans-1,3-dioxan-5-amine]"
8 µg/mL,–,–,"COc1ccc2nccc(CC[C@H]3OC[C@H](NC(=O)c4ccc5c(c4)OCCO5)CO3)c2c1 [AB-0088, N-(2-(2-(6-methoxyquinolin-4-yl)ethyl)-trans-1,3-dioxan-5-yl)-2,3-dihydrobenzo[b][1,4]dioxine-6-carboxamide]"
≤ 0.5 µg/mL,–,–,"COc1ccc2nccc(CC[C@H]3OC[C@H](NC(=O)c4ccc(Cl)c(Cl)c4)CO3)c2c1 [AB-0089, 3,4-dichloro-N-(2-(2-(6-methoxyquinolin-4-yl)ethyl)-trans-1,3-dioxan-5-yl)benzamide]"

# Source: US11352349B2, “Type II topoisomerase inhibitors and methods of making and using thereof” (Ohio State Innovation Foundation, priority 2017, dated 2022)
